Consider nine compounds from patent publication EP0678100B1, “SYNTHETIC AMPHIPATHIC PEPTIDES WITH ANTIMICROBIAL ACTIVITY” (PIONEER HI-BRED INTERNATIONAL, INC., priority 1993, dated 1998).

For one experiment, the system named is F. moniliforme. As to conditions: for MCIC: Minimum Complete Inhibitory Concentration, achieving a score of 3 or greater.
In another experiment the test system is A. flavus. As to conditions: for MCIC: Minimum Complete Inhibitory Concentration, achieving a score of 3 or greater.
The mark [1] stands for this setting: F. moniliforme, minimum inhibitory concentration, achieving a score of 1 or greater.
Where [2] appears, read: F. graminearum, minimum inhibitory concentration, achieving a score of 1 or greater.
Setting [3] is: A. flavus, minimum inhibitory concentration, achieving a score of 1 or greater.

Values after ≈ are worked out from the molar mass of the structure shown. Like-named read-outs stand apart in the source and are kept apart here. Residues, ends and D or L forms follow the SMILES beside them. No end group written: not given here.

Consider `CC[C@H](C)[C@H](NC(=O)CNC(=O)[C@@H](NC(=O)[C@@H](NC(=O)[C@@H](NC(=O)CNC(=O)[C@@H]1CCCN1C(=O)CNC(=O)[C@H](C)NC(=O)[C@H](CCCCN)NC(=O)[C@H](Cc1c[nH]c2ccccc12)NC(=O)[C@H](Cc1c[nH]cn1)NC(=O)[C@H](CCCNC(=N)N)NC(=O)[C@H](C)NC(=O)[C@H](CC(C)C)NC(=O)[C@H](C)NC(=O)[C@H](CCCNC(=N)N)NC(=O)[C@H](CC(C)C)NC(=O)[C@H](C)NC(=O)[C@H](CCCCN)NC(=O)[C@H](CCCCN)NC(=O)[C@H](CC(C)C)NC(=O)[C@@H](N)CCCCN)C(C)C)[C@@H](C)O)[C@@H](C)CC)C(=O)N[C@@H](C)C(=O)N[C@@H](Cc1c[nH]cn1)C(=O)N[C@@H](C)C(=O)N[C@@H](CCCCN)C(=O)N[C@@H](CO)C(=O)N[C@@H](CCC(N)=O)C(=O)N[C@@H](CC(C)C)C(=O)N[C@@H](Cc1c[nH]c2ccccc12)C(=O)O` [Peptide 2] (H-KLKKALRALARHWKAGPGVTIGIAHAKSQLW-OH), for which the MIC against F. moniliforme (setting [1]) came out at 14; against F. graminearum (setting [2]), 0.014 ng/mL (≈ 0.00411 nM).
In the case of `CC[C@H](C)[C@H](NC(=O)CNC(=O)[C@@H](NC(=O)[C@@H](NC(=O)[C@@H](NC(=O)CNC(=O)[C@@H]1CCCN1C(=O)CNC(=O)[C@H](C)NC(=O)[C@@H](NC(=O)[C@H](C)NC(=O)[C@H](CCCNC(=N)N)NC(=O)[C@H](CCC(N)=O)NC(=O)[C@H](CC(C)C)NC(=O)[C@H](C)NC(=O)[C@H](CCCNC(=N)N)NC(=O)[C@@H](NC(=O)[C@H](CCCCN)NC(=O)[C@H](CCCNC(=N)N)NC(=O)[C@H](CCCNC(=N)N)NC(=O)[C@H](CC(C)C)NC(=O)[C@H](Cc1c[nH]c2ccccc12)NC(=O)[C@H](CCCNC(=N)N)NC(=O)[C@@H](NC(=O)[C@H](CC(C)C)NC(=O)[C@H](CCCCN)NC(=O)[C@H](CCCNC(=N)N)NC(=O)[C@@H](NC(=O)[C@H](CC(C)C)NC(=O)[C@@H](N)CCCCN)[C@@H](C)CC)[C@@H](C)CC)[C@@H](C)CC)C(C)C)C(C)C)[C@@H](C)O)[C@@H](C)CC)C(=O)N[C@@H](C)C(=O)N[C@@H](Cc1c[nH]cn1)C(=O)N[C@@H](C)C(=O)N[C@@H](CCCCN)C(=O)N[C@@H](CO)C(=O)N[C@@H](CCC(N)=O)C(=O)N[C@@H](CC(C)C)C(=O)N[C@@H](Cc1c[nH]c2ccccc12)C(=O)O` [Peptide 7] (H-KLIRKLIRWLRRKIRALQRAVAGPGVTIGIAHAKSQLW-OH), the MIC against F. moniliforme (setting [1]) amounted to 10; against A. flavus (setting [3]), 40; against F. graminearum it was 0.01 ng/mL (≈ 0.00229 nM).
Consider Cecropin A [reference compound], for which the MCIC with F. moniliforme (F. moniliforme), in the experiment on A. flavus (A. flavus) and in the experiment on F. graminearum was more than 80 µg/mL throughout. The MIC in the experiment with F. moniliforme (setting [1]) amounted to 80; in the experiment with A. flavus (setting [3]), 80; against F. graminearum, 0.06 ng/mL.
Turning to `CC[C@H](C)[C@H](NC(=O)[C@H](C)NC(=O)[C@H](CCCCN)NC(=O)[C@H](CCC(=O)O)NC(=O)[C@@H](NC(=O)[C@H](CCCCN)NC(=O)[C@@H](N)CCCCN)[C@@H](C)CC)C(=O)N[C@@H](CCCCN)C(=O)N[C@@H](Cc1c[nH]cn1)C(=O)N[C@H](C(=O)N1CCC[C@H]1C(=O)N[C@@H](CCCCN)C(=O)N[C@@H](CCCCN)C(=O)N[C@H](C(=O)N[C@@H](CCCCN)C(=O)N[C@@H](CC(C)C)C(=O)N[C@@H](CCCCN)C(=O)N[C@@H](CCCCN)C(=O)N[C@@H](C)C(=O)N[C@@H](CC(C)C)C(=O)N[C@@H](CCCNC(=N)N)C(=O)N[C@@H](C)C(=O)N[C@@H](CC(C)C)C(=O)N[C@@H](C)C(=O)N[C@@H](CCCNC(=N)N)C(=O)N[C@@H](Cc1c[nH]cn1)C(=O)N[C@@H](Cc1c[nH]c2ccccc12)C(=O)N[C@@H](CCCCN)C(=O)O)[C@@H](C)CC)[C@@H](C)CC` [Peptide 10] (H-KKIEKAIKHIPKKIKLKKALRALARHWK-OH), the MIC with F. moniliforme (setting [1]) was found to be 7.5; against A. flavus (setting [3]) it was 80; against F. graminearum (setting [2]), 0.01 ng/mL (≈ 0.00296 nM).
For “IRALQRAVRHPRAIRRIYRGWKKAIRAGPGVTIGIAHAKSQLW [Peptide 6]”, in that order: 15, 80 and 0.01 ng/mL.
On to `CC[C@H](C)[C@H](NC(=O)CNC(=O)[C@@H](NC(=O)[C@@H](NC(=O)[C@@H](NC(=O)CNC(=O)[C@@H]1CCCN1C(=O)CNC(=O)[C@H](C)NC(=O)[C@H](CCCCN)NC(=O)[C@@H](NC(=O)[C@H](CCCCN)NC(=O)[C@H](CCCCN)NC(=O)[C@@H]1CCCN1C(=O)[C@@H](NC(=O)[C@H](Cc1c[nH]cn1)NC(=O)[C@H](CCCCN)NC(=O)[C@@H](NC(=O)[C@H](C)NC(=O)[C@H](CCCCN)NC(=O)[C@H](CCC(=O)O)NC(=O)[C@@H](NC(=O)[C@H](CCCCN)NC(=O)[C@@H](N)CCCCN)[C@@H](C)CC)[C@@H](C)CC)[C@@H](C)CC)[C@@H](C)CC)C(C)C)[C@@H](C)O)[C@@H](C)CC)C(=O)N[C@@H](C)C(=O)N[C@@H](Cc1c[nH]cn1)C(=O)N[C@@H](C)C(=O)N[C@@H](CCCCN)C(=O)N[C@@H](CO)C(=O)N[C@@H](CCC(N)=O)C(=O)N[C@@H](CC(C)C)C(=O)N[C@@H](Cc1c[nH]c2ccccc12)C(=O)O` [Peptide 1] (H-KKIEKAIKHIPKKIKAGPGVTIGIAHAKSQLW-OH), for which the MIC against F. moniliforme (setting [1]) came out at 17; against F. graminearum (setting [2]) it was 0.017 ng/mL (≈ 0.00487 nM).
For `CC[C@H](C)[C@H](NC(=O)CNC(=O)[C@@H](NC(=O)[C@@H](NC(=O)[C@@H](NC(=O)CNC(=O)[C@@H]1CCCN1C(=O)CNC(=O)[C@H](C)NC(=O)[C@H](CC(C)C)NC(=O)[C@H](C)NC(=O)[C@H](CCCNC(=N)N)NC(=O)[C@@H](NC(=O)[C@H](CCCCN)NC(=O)[C@@H](NC(=O)[C@H](CCCCN)NC(=O)[C@H](CCCCN)NC(=O)[C@@H]1CCCN1C(=O)[C@@H](NC(=O)[C@H](Cc1c[nH]cn1)NC(=O)[C@H](CCCCN)NC(=O)[C@@H](NC(=O)[C@H](C)NC(=O)[C@H](CCCCN)NC(=O)[C@H](CCC(=O)O)NC(=O)[C@@H](NC(=O)[C@H](CCCCN)NC(=O)[C@H](CCCCN)NC(=O)[C@@H](NC(=O)[C@H](C)NC(=O)[C@H](CCCNC(=N)N)NC(=O)[C@@H](N)CCC(N)=O)C(C)C)[C@@H](C)CC)[C@@H](C)CC)[C@@H](C)CC)[C@@H](C)CC)[C@@H](C)CC)C(C)C)[C@@H](C)O)[C@@H](C)CC)C(=O)N[C@@H](C)C(=O)N[C@@H](Cc1c[nH]cn1)C(=O)N[C@@H](C)C(=O)N[C@@H](CCCCN)C(=O)N[C@@H](CO)C(=O)N[C@@H](CCC(N)=O)C(=O)N[C@@H](CC(C)C)C(=O)N[C@@H](Cc1c[nH]c2ccccc12)C(=O)O` [Peptide 4] (H-QRAVKKIEKAIKHIPKKIKIRALAGPGVTIGIAHAKSQLW-OH), in that order: 17 and 0.013 ng/mL (≈ 0.00296 nM).
Mastoparan [reference compound]: the MCIC in the experiment on F. moniliforme (F. moniliforme) is 10 µg/mL; in the experiment on A. flavus (A. flavus), 40 µg/mL; in the experiment on F. graminearum it was 10 µg/mL. For the same compound, the MIC against F. moniliforme (setting [1]) is 2.5; in the experiment with A. flavus (setting [3]) it was 20; in the experiment with F. graminearum, 0.005 ng/mL.
In the case of `CC[C@H](C)[C@H](NC(=O)[C@H](C)NC(=O)[C@H](CCCNC(=N)N)NC(=O)[C@H](Cc1ccc(O)cc1)NC(=O)[C@@H](NC(=O)[C@H](CCCNC(=N)N)NC(=O)[C@@H](N)CCCNC(=N)N)[C@@H](C)CC)C(=O)N[C@@H](CCCNC(=N)N)C(=O)N[C@@H](Cc1c[nH]cn1)C(=O)N[C@H](C(=O)N1CCC[C@H]1C(=O)N[C@@H](CCCNC(=N)N)C(=O)N[C@@H](CCCNC(=N)N)C(=O)N[C@H](C(=O)N[C@@H](CCCNC(=N)N)C(=O)NCC(=O)N[C@@H](Cc1c[nH]c2ccccc12)C(=O)N[C@@H](CC(C)C)C(=O)N[C@@H](CCCNC(=N)N)C(=O)N[C@@H](CCCNC(=N)N)C(=O)N[C@H](C(=O)NCC(=O)N[C@@H](CCCNC(=N)N)C(=O)N[C@@H](CCCNC(=N)N)C(=O)N[C@H](C(=O)N[C@@H](CCC(=O)O)C(=O)N[C@@H](CCCNC(=N)N)C(=O)N[C@H](C(=O)NCC(=O)N[C@@H](CCC(N)=O)C(=O)N[C@@H](Cc1c[nH]cn1)C(=O)O)C(C)C)[C@@H](C)CC)[C@@H](C)CC)[C@@H](C)CC)[C@@H](C)CC` [Peptide 9] (H-RRIYRAIRHIPRRIRGWLRRIGRRIERVGQH-OH), the figures for the MIC against F. moniliforme, in the experiment with A. flavus and against F. graminearum (setting [2]) were 10, 15 and 0.01 ng/mL (≈ 0.0025 nM), respectively.
